According to patent publication US20100029620A1, “SUBSTITUTED TRIAZOLINE, TETRAZOLONE AND IMIDAZOLONE DERIVATIVES FOR USE AS A MEDICINE” (JANSSEN PHARMACEUTICA N.V., priority 2004, published 2010):

Legend:
[1] = target: T1, human adrenergic-α2A receptor (Homo sapiens, UniProt P08913); assay: Radioligand binding experiment for α2A-adrenoceptor ([3H]-raulwolscine competition, CHO cell membranes); conditions: [3H]raulwolscine 1 nM, membranes of CHO cells transfected with human α2A receptor; read-out: pIC50 α2A (converted)
T1 construct: expressed in transfected cells; membrane preparation
T1 sequence (P08913 1-465): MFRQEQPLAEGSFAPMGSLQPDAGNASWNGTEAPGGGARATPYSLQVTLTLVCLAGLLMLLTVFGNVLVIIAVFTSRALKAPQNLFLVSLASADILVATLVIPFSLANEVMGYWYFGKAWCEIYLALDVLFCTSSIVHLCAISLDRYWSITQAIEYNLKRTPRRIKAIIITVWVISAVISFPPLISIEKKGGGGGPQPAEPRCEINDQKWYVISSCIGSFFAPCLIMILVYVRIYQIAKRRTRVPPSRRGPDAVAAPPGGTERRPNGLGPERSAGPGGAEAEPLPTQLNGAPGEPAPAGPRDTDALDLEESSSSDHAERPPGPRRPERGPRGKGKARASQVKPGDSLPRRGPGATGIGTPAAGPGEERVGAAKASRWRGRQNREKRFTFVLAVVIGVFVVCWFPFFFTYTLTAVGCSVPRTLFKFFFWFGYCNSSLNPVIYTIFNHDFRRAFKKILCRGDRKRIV
Method: (§1) The interaction of the compounds of Formula (I) with α2C-adrenoceptor receptors was assessed in in vitro radioligand binding experiments. In general, a low concentration of a radioligand with a high binding affinity for a particular receptor or transporter is incubated with a sample of a tissue preparation enriched in a particular receptor or transporter or with a preparation of cells expressing cloned human receptors in a buffered medium. During the incubation, the radioligand binds to the receptor or transporter. When equilibrium of binding is reached, the receptor bound radioactivity is separated from the non-bound radioactivity, and the receptor- or transporter-bound activity is counted. The interaction of the test compounds with the receptor is assessed in competition binding experiments. Various concentrations of the test compound are added to the incubation mixture containing the receptor- or transporter preparation and the radioligand. The test compound in proportion to its binding affinity and its concentration inhibits binding of the radioligand. The radioligand used for […] receptor binding was [^3H]-raulwolscine.
(§2) CHO cells, stabile transfected with human adrenergic-α2A-, -α2B or α2C receptor cDNA, were cultured in Dulbecco's Modified Eagle's Medium (DMEM)/Nutrient mixture Ham's F12 (ratio 1:1)(Gibco, Gent-Belgium) supplemented with 10% heat inactivated fetal calf serum (Life Technologies, Merelbeke-Belgium) and antibiotics (100 IU/ml penicillin G, 100 μg/ml streptomycin sulphate, 110 μg/ml pyruvic acid and 100 μg/ml L-glutamine). One day before collection, cells were induced with 5 mM sodiumbutyrate. Upon 80-90% of confluence, cells were scraped in phosphate buffered saline without Ca^2+ and Mg^2+ and collected by centrifugation at 1500×g for 10 min. The cells were homogenised in Tris-HCl 50 mM using an Ultraturrax homogenizer and centrifuged for 10 min at 23,500×g. The pellet was washed once by resuspension and rehomogenization and the final pellet was resuspended in Tris-HCl, divided in 1 ml aliquots and stored at −70° C.
(§3) Membranes were thawed and re-homogenized in incubation buffer (glycylglycine 25 mM, pH 8.0). In a total volume of 500 μl, 2-10 μg protein was incubated with [^3H]raulwolscine (NET-722) (New England Nuclear, USA) (1 nM final concentration) with or without competitor for 60 min at 25° C. followed by rapid filtration over GF/B filter using a Filtermate196 harvester (Packard, Meriden, Conn.). Filters were rinsed extensively with ice-cold rinsing buffer (Tris-HCl 50 mM pH 7.4). Filter-bound radioactivity was determined by scintillation counting in a Topcount (Packard, Meriden, CT) and results were expressed as counts per minute (cpm). Non-specific binding was determined in the presence of 1 μM oxymetazoline for hα2A- and hα2B receptors and 1 μM spiroxatrine for hα2C receptors.
(§4) Data from assays in the presence of compound were calculated as a percentage of total binding measured in the absence of test compound. Inhibition curves, plotting percent of total binding versus the log value of the concentration of the test compound, were automatically generated, and sigmoidal inhibition curves were fitted using non-linear regression. The pIC50 values of test compounds were derived from individual curves.

[2] = target: T2, human adrenergic-α2B receptor (Homo sapiens, UniProt P18089); assay: Radioligand binding experiment for α2B-adrenoceptor ([3H]-raulwolscine competition, CHO cell membranes); conditions: [3H]raulwolscine 1 nM, membranes of CHO cells transfected with human α2B receptor; for IC50: read-out: pIC50 α2B (converted)
T2 construct: expressed in transfected cells; membrane preparation
T2 sequence (P18089 1-450): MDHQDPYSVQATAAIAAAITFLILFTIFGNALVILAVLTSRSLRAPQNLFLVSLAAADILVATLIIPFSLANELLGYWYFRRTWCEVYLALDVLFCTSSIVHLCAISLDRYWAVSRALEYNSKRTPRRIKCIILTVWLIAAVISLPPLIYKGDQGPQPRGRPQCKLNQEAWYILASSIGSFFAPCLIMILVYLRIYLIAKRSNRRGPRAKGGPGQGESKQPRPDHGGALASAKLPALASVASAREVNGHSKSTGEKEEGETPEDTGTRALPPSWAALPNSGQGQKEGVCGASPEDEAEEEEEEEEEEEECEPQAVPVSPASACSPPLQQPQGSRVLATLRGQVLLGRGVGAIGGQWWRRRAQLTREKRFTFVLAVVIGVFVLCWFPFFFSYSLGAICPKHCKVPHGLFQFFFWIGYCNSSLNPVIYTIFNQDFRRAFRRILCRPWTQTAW
Method: as §1, §2, §3, §4

[3] = target: T3, human adrenergic-α2C receptor (Homo sapiens, UniProt P18825); assay: Radioligand binding experiment for α2C-adrenoceptor ([3H]-raulwolscine competition, CHO cell membranes); conditions: [3H]raulwolscine 1 nM, membranes of CHO cells transfected with human α2C receptor; read-out: pIC50 α2C (converted)
T3 construct: expressed in transfected cells; membrane preparation
T3 sequence (P18825 1-462): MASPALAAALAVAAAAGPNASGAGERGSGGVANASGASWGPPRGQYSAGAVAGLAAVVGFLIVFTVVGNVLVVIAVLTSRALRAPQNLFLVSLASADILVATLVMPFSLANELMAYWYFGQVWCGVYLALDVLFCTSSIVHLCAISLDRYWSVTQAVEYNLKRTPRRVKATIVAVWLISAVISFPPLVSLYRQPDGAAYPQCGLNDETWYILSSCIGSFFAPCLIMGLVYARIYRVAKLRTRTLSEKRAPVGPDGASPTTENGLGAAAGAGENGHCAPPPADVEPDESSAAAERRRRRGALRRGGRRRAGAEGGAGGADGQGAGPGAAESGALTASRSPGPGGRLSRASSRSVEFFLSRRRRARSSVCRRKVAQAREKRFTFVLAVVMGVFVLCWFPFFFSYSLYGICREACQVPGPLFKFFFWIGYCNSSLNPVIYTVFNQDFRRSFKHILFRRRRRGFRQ
Method: as §1, §2, §3, §4

IC50 [1]	IC50 [2]	IC50 [3]	pIC50 α2B [2]	Compound
12.6 nM	15.8 nM	1 nM		O=C1c2ccccc2C(=O)N1CCCn1ncn(CC2CCN(CCOc3ccccc3)CC2)c1=O [compound 82]
25.1 nM	3.98 nM	1.58 nM		CN(C)CCNc1ccc(-n2cnn(CC3CCN(CCOc4ccccc4)CC3)c2=O)cc1 [compound 38]
100 nM	126 nM	3.98 nM		C/C(=C\c1ccccc1)CN1CCC(n2cnn(CCNCCOc3ccccc3)c2=O)CC1 [compound 29]
158 nM	39.8 nM	1.58 nM		O=c1n(-c2ccc(CN3CCOCC3)cc2)cnn1CC1CCN(CCOc2ccccc2)CC1 [compound 73]
100 nM	3.98 nM	5.01 nM		CC(C)N1CCN(c2ccc(-n3cnn(CC4CCN(CCOc5ccccc5)CC4)c3=O)cc2)CC1 [compound 53]
39.8 nM	200 nM	3.16 nM		O=c1n(-c2ccc(CNCc3ccccn3)cc2)cnn1CCNCCOc1ccccc1 [compound 96]
63.1 nM	79.4 nM	5.01 nM		O=c1n(CC2CCN(CCOc3ccccc3)CC2)nnn1-c1ccc(CN2CCOCC2)cc1 [compound 104]
251 nM	126 nM	2 nM		O=c1n(-c2ccc(NCc3ccc(F)cc3)cc2)cnn1CCNCCOc1ccccc1 [compound 89]
398 nM	200 nM	15.8 nM		C/C(=C\c1ccccc1)CN1CCC(n2cnn(CCN(C)CCOc3ccccc3)c2=O)CC1 [compound 30]
31.6 nM		1.26 nM	7.5	CN(C)CCNc1ccc(-n2cnn(CCNCCOc3ccccc3)c2=O)cc1 [compound 87]
251 nM	15.8 nM	12.6 nM		O=c1n(-c2ccc(NCCN3CCOCC3)cc2)cnn1CC1CCN(CCOc2ccccc2)CC1 [compound 50]
39.8 nM	5.01 nM	2 nM		CN1CCCN(c2ccc(-n3cnn(CC4CCN(CCOc5ccccc5)CC4)c3=O)cc2)CC1 [compound 60]
63.1 nM	6.31 nM	3.98 nM		CN1CCN(CCCNc2ccc(-n3cnn(CC4CCN(CCOc5ccccc5)CC4)c3=O)cc2)CC1 [compound 49]
63.1 nM	7.94 nM	10 nM		C/C(=C\c1ccccc1)CN1CCC(Cn2ncn(-c3ccc(NCCN(C)C)cc3)c2=O)CC1 [compound 39]
39.8 nM	31.6 nM	1 nM		CN(C)CCNc1ccc(-n2cnn(CCNCCOc3ccccc3)c2=O)cc1 [compound 86]
501 nM	398 nM	20 nM		O=c1n(CCNCCOc2ccccc2)nnn1-c1ccc(CN2CCC(O)CC2)cc1 [compound 107]

IC50 [1]	IC50 [2]	IC50 [3]	pIC50 α2B [2]	Compound
39.8 nM	25.1 nM	3.98 nM		NCc1ccc(Cn2cnn(C3CCN(CCOc4ccccc4)CC3)c2=O)cc1 [compound 37]
126 nM	158 nM	6.31 nM		CN(Cc1ccccc1)C(=O)Cn1cnn(CC2CCN(CCOc3ccccc3)CC2)c1=O [compound 46]
39.8 nM	79.4 nM	12.6 nM		NCc1ccc(-n2cnn(C3CCN(CCOc4ccccc4)CC3)c2=O)cc1 [compound 36]
251 nM		5.01 nM	6.6	O=c1n(-c2ccc(CN3CCOCC3)cc2)cnn1CCNCCOc1ccccc1 [compound 24]
631 nM	158 nM	15.8 nM		COc1ccc(N2CCN(c3ccc(-n4cnn(CCNCCOc5ccccc5)c4=O)cc3)CC2)cc1 [compound 8]
39.8 nM	39.8 nM	2 nM		O=c1n(-c2ccc(NCCN3CCCC3)cc2)cnn1CCNCCOc1ccccc1 [compound 88]
25.1 nM	20 nM	0.631 nM		O=C1c2ccccc2C(=O)N1CCCn1cnn(CC2CCN(CCOc3ccccc3)CC2)c1=O [compound 84]
501 nM	251 nM	20 nM		O=c1n(-c2ccc3c(c2)CCN(CC2CCCCC2)C3)cnn1CCNCCOc1ccccc1 [compound 98]
100 nM	100 nM	3.98 nM		O=c1n(-c2ccc(N3CCC(N4CCCC4)CC3)cc2)cnn1CCNCCOc1ccccc1 [compound 20]
398 nM	631 nM	31.6 nM		C/C(=C\c1ccccc1)CN1CCC(n2cnn(CCN3CCCCC3)c2=O)CC1 [compound 79]
39.8 nM	10 nM	0.501 nM		O=c1n(-c2ccc(CN3CCCC3)cc2)cnn1CC1CCN(CCOc2ccccc2)CC1 [compound 62]
251 nM	251 nM	20 nM		O=c1n(CCN2CCOCC2)cnn1CC1CCN(CCOc2ccccc2)CC1 [compound 71]
631 nM	251 nM	7.94 nM		CS(=O)(=O)N1CCc2cc(-n3cnn(CCNCCOc4ccccc4)c3=O)ccc2C1 [compound 101]
39.8 nM	79.4 nM	1.58 nM		O=c1n(-c2ccc(CN3CCC(N4CCCC4)CC3)cc2)cnn1CCNCCOc1ccccc1 [compound 21]
2510 nM	200 nM	6.31 nM		CC(NCCOc1ccccc1)C(C)n1ncn(-c2ccc(N3CCN(c4ccc(O)cc4)CC3)cc2)c1=O (single isomer, unassigned) [compound 4]
158 nM	31.6 nM	15.8 nM		O=c1n(-c2ccc(N3CCN(Cc4ccccc4)CC3)cc2)cnn1CC1CCN(CCOc2ccccc2)CC1 [compound 54]
